The nature of data set [1]: Plasma pharmacokinetics of NBI-34060 (half-life, volume of distribution). It counts as in vivo, human. The text has this:
The mean plasma half-life of a sedative-hypnotic compound may be determined using well known techniques. Terminal half-life may be determined using standard pharmacokinetic calculations, such as those presented by Rolland and Tozer (Clinical Pharmacokinetics Concepts and Applications, 3rd. Ed., Chap. 3, 1995). in addition, software is commercially available which performs this calculation, such as the product sold under the tradename “WinNinlin™”(Prof. Ver. 1.5). […] This is estimated by linear regression analysis of the time vs. log concentration of the test compound.
In this experiment, commercially available plasma profiling software (GastroPlus™) (Simulations Plus Inc., CA.) was used to simulate the effects of varying controlled release profiles and pharmacokinetic parameters based on in vivo plasma concentrations of NBI-34060 as measured in 12-healthy male human subjects. […] This assumed that the lower CL drug would distribute to the same tissues as the higher CL drug, so that all half-life changes were because of differences in metabolism and/or renal clearance rather than in volumes. Two oral plasma concentration-time files were created (NBI-Target-Hi.opd and NBI-Target-Lo.opd) with plasma concentration-time points serving as targets (shown as a square in FIGS. 2, 3, 4 and 5). The requirements for Tmax2 for the high target was set at 100% of Tmax1.

In brackets after ≈: the same amount, converted by molar mass.

In data set [1] (male, human, plasma half-life), `CC(=O)N(C)c1cccc(-c2ccnc3c(C(=O)c4cccs4)cnn23)c1` [NBI-34060, N-methyl-N-(3-{3-[2-thienylcarbonyl]-pyrazolo-[1,5-a]-pyrimidin-7-yl}-phenyl)acetamide] gave a half-life of roughly 1.3 h. The same compound displayed a Vd in data set [1] (one-compartment pharmacokinetic model, based on in vivo plasma concentrations in 12 healthy male human subjects) of 159 L. Also, the “resulting pH” value in the data set “Solubility in water” (pH of the solution in water at approximately 20-30 μg/ml) was “approximately 8.0”. The compound also showed a solubility in the data set “Solubility in water” (water, pH 8, water) of 20 to 30 µg/mL (≈ 53.1 to 79.7 µM).

The values are drawn from patent publication US6485746B1, “Controlled-release sedative-hypnotic compositions and methods related thereto” (Neurocrine Biosciences, Inc., priority 2000, dated 2002).
